# What was measured:
# [1] = Phase-solubility study of nicardipine HCl and CAPTISOL as a function of pH; format: physicochemical; settings: FIG. 1
# Experimental: in this phase-solubility study, nicardipine HCl, in amounts that exceeded its solubility, was taken into vials containing buffers in the pH range of 3.6-7.4 and containing CAPTISOL® in the concentration range of 2-40% w/v. These evaluations were also done for buffer solutions containing no CAPTISOL®. The vials were sealed and shaken at room temperature until equilibrium was reached. Subsequently, test sample aliquots were withdrawn, filtered, and drug concentration was determined by RP-HPLC with UV detection.
# [2] = cited from earlier work
"solubility as a function of CAPTISOL concentration ([1]; at a given pH value, CAPTISOL 2-40% w/v)","solubility as a function of pH ([1]; buffers pH 3.6-7.4, room temperature)",Compound,solubility in water [2]
increased,decreased with increased pH,"COC(=O)C1=C(C)NC(C)=C(C(=O)OCCN(C)Cc2ccccc2)C1c1cccc([N+](=O)[O-])c1.Cl (racemic) [nicardipine HCl, (±)-2-(benzyl-methylamino)ethyl methyl 1,4-dihydro-2,6-dimethyl-4-(m-nitrophenyl)-3,5-pyridinedicarboxylate monohydrochloride]",
,,"COC(=O)C1=C(C)NC(C)=C(C(=O)OCCN(C)Cc2ccccc2)C1c1cccc([N+](=O)[O-])c1 (stereo not drawn) [Nicardipine, nicardipine]",only slightly soluble in water

# Source: patent US9549994B2, “Compositions of nicardipine and sulfoalkylated β-cyclodextrin” (EKR Therapeutics, Inc., priority 2006, dated 2017)
